# Data reported in ChEMBL document CHEMBL4665764, “Synthesis and Biological Evaluation of Celastrol Derivatives as Potential Immunosuppressive Agents” (J Nat Prod, 2020).
# Activity calls are given as the source filed them. The calls are words filed in the database; no cut-off is given here.
# Key:
# [1] = Cytotoxicity against BALB/c mouse T cell assessed as reduction in cell viability after 48 hrs by CCK8 assay; assay type: tissue-based, T cell line; settings: BALB/c mouse T cells
# [2] = Antiproliferative activity against Con A-induced BALB/c mouse T cell after 48 hrs by CCK8 assay; assay type: functional, tissue-based, T cell line
# [3] = Selectivity index, ratio of CC50 for cytotoxicity against BALB/c mouse T cell to IC50 for antiproliferative activity against Con A-induced BALB/c mouse T cell; set-up: species or system T cell line
# T cell line [4] = experiment: Induction of apoptosis in BALB/c mouse T cell assessed as increase in Bax at >=1 uM by Western blot analysis; assay type: functional; settings: dose microM >=1
# T cell line [5] = experiment: Induction of apoptosis in BALB/c mouse T cell assessed as increase in Bcl2 at >=1 uM by Western blot analysis; assay type: functional; settings: dose microM >=1
# T cell line [6] = experiment: Induction of mitochondrial membrane disruption in BALB/c mouse T cell assessed as increase in cytochrome c release from mitochondria to cytosol at >=1 uM by Western blot analysis; assay type: functional; settings: dose microM >=1
# T cell line [7] = experiment: Induction of apoptosis in BALB/c mouse T cell assessed as assessed as increase in caspase 3 >=1 uM; assay type: functional, tissue-based; settings: dose microM >=1
# T cell line [8] = experiment: Induction of apoptosis in BALB/c mouse T cell assessed as assessed as increase in caspase 9 >=1 uM; assay type: functional, tissue-based; settings: dose microM >=1
# [9] = Anti-inflammatory activity in BALB/c mouse T cell assessed as assessed as IL-4 level at 0.01 uM after 48 hrs by ELISA (reference value: 167.8 +/- 9.4 pg/ml); assay type: functional, T cell line
# [10] = Anti-inflammatory activity in BALB/c mouse T cell assessed as assessed as IL-4 level at 0.1 uM after 48 hrs by ELISA (reference value: 167.8 +/- 9.4 pg/ml); assay type: functional, T cell line
# [11] = Anti-inflammatory activity in BALB/c mouse T cell assessed as assessed as IL-4 level at 1 uM after 48 hrs by ELISA (reference value: 167.8 +/- 9.4 pg/ml); assay type: functional, T cell line
# [12] = Anti-inflammatory activity in BALB/c mouse T cell assessed as assessed as TNF-alpha level at 0.01 uM after 48 hrs by ELISA (reference value: 375.8 +/- 19.6 pg/ml); assay type: functional, T cell line
# [13] = Anti-inflammatory activity in BALB/c mouse T cell assessed as assessed as TNF-alpha level at 0.1 uM after 48 hrs by ELISA (reference value: 375.8 +/- 19.6 pg/ml); assay type: functional, T cell line
# [14] = Anti-inflammatory activity in BALB/c mouse T cell assessed as assessed as TNF-alpha level at 1 uM after 48 hrs by ELISA (reference value: 375.8 +/- 19.6 pg/ml); assay type: functional, T cell line
# [15] = Anti-inflammatory activity in BALB/c mouse T cell assessed as assessed as IL-2 level at 0.01 uM after 48 hrs by ELISA (reference value: 152.9 +/- 8.7 pg/ml); assay type: functional, T cell line
# [16] = Anti-inflammatory activity in BALB/c mouse T cell assessed as assessed as IL-2 level at 0.1 uM after 48 hrs by ELISA (reference value: 152.9 +/- 8.7 pg/ml); assay type: functional, T cell line
# [17] = Anti-inflammatory activity in BALB/c mouse T cell assessed as assessed as IL-2 level at 1 uM after 48 hrs by ELISA (reference value: 152.9 +/- 8.7 pg/ml); assay type: functional, T cell line
# [18] = biological target: Proto-oncogene tyrosine-protein kinase LCK (Mus musculus) (UniProt P06240); experiment: Inhibition of LCK phosphorylation in Con-A induced BALB/c mouse T cell by Western blot analysis; assay type: tissue-based; settings: T cell line
# Chain of Proto-oncogene tyrosine-protein kinase LCK (Mus musculus) (P06240 2-509 limits assumed): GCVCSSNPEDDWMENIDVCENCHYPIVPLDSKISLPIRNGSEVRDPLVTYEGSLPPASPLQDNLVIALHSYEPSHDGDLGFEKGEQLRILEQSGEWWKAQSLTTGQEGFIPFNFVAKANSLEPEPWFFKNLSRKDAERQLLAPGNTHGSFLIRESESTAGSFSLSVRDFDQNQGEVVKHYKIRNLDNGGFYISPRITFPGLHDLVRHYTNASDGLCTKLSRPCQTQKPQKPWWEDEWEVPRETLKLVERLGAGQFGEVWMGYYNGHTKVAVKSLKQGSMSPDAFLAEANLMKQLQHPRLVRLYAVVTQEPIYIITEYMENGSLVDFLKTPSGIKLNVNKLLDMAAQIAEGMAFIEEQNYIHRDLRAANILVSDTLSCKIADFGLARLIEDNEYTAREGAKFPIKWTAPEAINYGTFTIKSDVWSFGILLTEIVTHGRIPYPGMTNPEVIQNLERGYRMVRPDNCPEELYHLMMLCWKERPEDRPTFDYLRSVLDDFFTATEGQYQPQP
# [19] = biological target: T1, Tyrosine-protein kinase ZAP-70 (Mus musculus) (UniProt P43404); experiment: Inhibition of ZAP70 phosphorylation in Con-A induced BALB/c mouse T cell by Western blot analysis; assay type: tissue-based; settings: T cell line
# T1 sequence (whole entry): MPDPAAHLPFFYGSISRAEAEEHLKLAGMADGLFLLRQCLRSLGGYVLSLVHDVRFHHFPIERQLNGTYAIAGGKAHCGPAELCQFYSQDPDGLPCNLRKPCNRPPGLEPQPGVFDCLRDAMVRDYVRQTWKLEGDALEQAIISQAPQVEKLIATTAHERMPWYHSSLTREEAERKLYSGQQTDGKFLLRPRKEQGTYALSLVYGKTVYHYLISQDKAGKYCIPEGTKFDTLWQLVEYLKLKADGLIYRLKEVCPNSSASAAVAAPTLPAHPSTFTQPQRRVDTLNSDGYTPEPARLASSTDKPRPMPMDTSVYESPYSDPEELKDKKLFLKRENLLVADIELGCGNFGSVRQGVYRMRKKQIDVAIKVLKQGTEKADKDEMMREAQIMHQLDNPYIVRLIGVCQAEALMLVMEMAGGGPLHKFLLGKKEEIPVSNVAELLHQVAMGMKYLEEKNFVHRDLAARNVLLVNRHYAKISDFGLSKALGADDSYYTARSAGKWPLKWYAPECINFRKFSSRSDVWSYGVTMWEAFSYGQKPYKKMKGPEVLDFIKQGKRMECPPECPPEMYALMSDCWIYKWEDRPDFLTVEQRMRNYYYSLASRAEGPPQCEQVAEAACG
# [20] = Induction of apoptosis in Con A-induced BALB/c mouse T cell assessed as early apoptotic cells at 0.01 uM after 48 hrs by Annexin V-FITC/propidium iodide staining based FACS assay (reference value: 26.5%); assay type: functional, T cell line
# [21] = Induction of apoptosis in Con A-induced BALB/c mouse T cell assessed as late apoptotic cells at 0.01 uM after 48 hrs by Annexin V-FITC/propidium iodide staining based FACS assay (reference value: 7.3%); assay type: functional, T cell line
# [22] = Induction of apoptosis in Con A-induced BALB/c mouse T cell assessed as necrotic cells at 0.01 uM after 48 hrs by Annexin V-FITC/propidium iodide staining based FACS assay (reference value: 2.9%); assay type: functional, T cell line
# [23] = Induction of apoptosis in Con A-induced BALB/c mouse T cell assessed as viable cells at 0.01 uM after 48 hrs by Annexin V-FITC/propidium iodide staining based FACS assay (reference value: 63.3%); assay type: functional, T cell line
# [24] = Induction of apoptosis in Con A-induced BALB/c mouse T cell assessed as late apoptotic cells at 0.1 uM after 48 hrs by Annexin V-FITC/propidium iodide staining based FACS assay (reference value: 7.3%); assay type: functional, T cell line
# [25] = Induction of apoptosis in Con A-induced BALB/c mouse T cell assessed as necrotic cells at 0.1 uM after 48 hrs by Annexin V-FITC/propidium iodide staining based FACS assay (reference value: 2.9%); assay type: functional, T cell line
# [26] = Induction of apoptosis in Con A-induced BALB/c mouse T cell assessed as viable cells at 0.1 uM after 48 hrs by Annexin V-FITC/propidium iodide staining based FACS assay (reference value: 63.3%); assay type: functional, T cell line
# [27] = Induction of apoptosis in Con A-induced BALB/c mouse T cell assessed as early apoptotic cells at 0.1 uM after 48 hrs by Annexin V-FITC/propidium iodide staining based FACS assay (reference value: 26.5%); assay type: functional, T cell line
# [28] = Induction of apoptosis in Con A-induced BALB/c mouse T cell assessed as early apoptotic cells at 1 uM after 48 hrs by Annexin V-FITC/propidium iodide staining based FACS assay (reference value: 26.5%); assay type: functional, T cell line
# [29] = Induction of apoptosis in Con A-induced BALB/c mouse T cell assessed as late apoptotic cells at 1 uM after 48 hrs by Annexin V-FITC/propidium iodide staining based FACS assay (reference value: 7.3%); assay type: functional, T cell line
# [30] = Induction of apoptosis in Con A-induced BALB/c mouse T cell assessed as necrotic cells at 1 uM after 48 hrs by Annexin V-FITC/propidium iodide staining based FACS assay (reference value: 2.9%); assay type: functional, T cell line
# [31] = Induction of apoptosis in Con A-induced BALB/c mouse T cell assessed as viable cells at 1 uM after 48 hrs by Annexin V-FITC/propidium iodide staining based FACS assay (reference value: 63.3%); assay type: functional, T cell line
smiles,measurement,setting,value
CNC(=O)[C@]1(C)CC[C@]2(C)CC[C@]3(C)C4=CC=C5C(=CC(=O)C(O)=C5C)[C@]4(C)CC[C@@]3(C)[C@@H]2C1,CC50 at 48 h,[1],1200 nM
same,IC50,[2],25 nM
same,Ratio CC50/IC50,[3],47.7
same,Activity,T cell line [4],Active
same,Activity,T cell line [5],Active
same,Activity,T cell line [6],Active
same,Activity,T cell line [7],Active
same,Activity,T cell line [8],Active
same,Activity,[9],135.2 pg/mL
same,Activity,[10],78.2 pg/mL
same,Activity,[11],39.1 pg/mL
same,Activity,[12],264.5 pg/mL
same,Activity,[13],204.1 pg/mL
same,Activity,[14],142.9 pg/mL
same,Activity,[15],128.7 pg/mL
same,Activity,[16],79.1 pg/mL
same,Activity,[17],51.1 pg/mL
same,inhibition,[18],Dose-dependent effect
same,inhibition,[19],Dose-dependent effect
same,Activity,[20],27.9%
same,Activity,[21],7%
same,Activity,[22],1.7%
same,Activity,[23],63.4%
same,Activity,[24],9.5%
same,Activity,[25],0.5%
same,Activity,[26],46.3%
same,Activity,[27],43.6%
same,Activity,[28],56%
same,Activity,[29],8.5%
same,Activity,[30],1%
same,Activity,[31],34.5%
